Laboratory results taken from patent US10246456B2, “IRAK4 inhibiting agents” (BIOGEN MA INC., priority 2014, dated 2019).

Experiments:
IRAK4 = IRAK4 (Homo sapiens (Human), UniProt Q9NWZ3); assay: IRAK-4 AlphaScreen biochemical kinase assay; conditions: 1 nM IRAK4, 1 mM ATP, 3.5 h at RT
Summary of the method: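 AlphaScreen read-out: streptavidin beads bind the biotinylated peptide and protein A beads bind the anti-phosphothreonine antibody, so energy transfer reports phosphorylation of the peptide. The kinase is human IRAK-4.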

IL-6 in A549 cells = assay: Cell-based IL-6 ELISA assay in IL-1beta stimulated A549 cells; conditions: 2 ng/ml human IL-1beta overnight
Summary of the method: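 A549 cells (2.5×10^4/well, DMEM/10% FBS) pretreated 30 min at 37 C with compound, 10-point serial dilution from 10 uM, then stimulated overnight with 2 ng/ml human IL-1beta. Secreted IL-6 in supernatant quantified by human IL-6 ELISA.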

IRAK4, sequence (Q9NWZ3 whole entry, species assumed): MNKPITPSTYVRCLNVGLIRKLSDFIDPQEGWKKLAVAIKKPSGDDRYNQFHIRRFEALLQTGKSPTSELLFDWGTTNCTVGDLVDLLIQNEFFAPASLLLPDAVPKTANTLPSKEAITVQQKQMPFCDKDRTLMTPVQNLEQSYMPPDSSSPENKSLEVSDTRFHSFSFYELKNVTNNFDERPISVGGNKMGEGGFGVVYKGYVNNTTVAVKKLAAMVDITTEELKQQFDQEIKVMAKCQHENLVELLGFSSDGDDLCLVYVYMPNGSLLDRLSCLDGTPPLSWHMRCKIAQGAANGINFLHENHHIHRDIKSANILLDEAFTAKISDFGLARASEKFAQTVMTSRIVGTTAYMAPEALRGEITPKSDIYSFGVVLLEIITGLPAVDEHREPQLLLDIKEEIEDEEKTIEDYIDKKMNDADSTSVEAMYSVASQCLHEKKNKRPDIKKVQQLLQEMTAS

Row | Structure (SMILES) | IC50 (IRAK4) | EC50 (IL-6 in A549 cells)
1 | CCC[C@H](N)c1cccc(-c2cc(CN3CCOCC3)c3cnn(-c4cccc(CO)n4)c3c2)n1 [Example 498, (S)-(6-(6-(6-(1-aminobutyl)pyridin-2-yl)-4-(morpholinomethyl)-1H-indazol-1-yl)pyridin-2-yl)methanol] | < 100 nM | ≤ 1000 nM
2 | CC(F)(F)C[C@H](N)c1cccc(-c2ccc3cnn(-c4cccc(CO)n4)c3c2)n1 [Example 437, (S)-(6-(6-(6-(1-amino-3,3-difluorobutyl)pyridin-2-yl)-1H-indazol-1-yl)pyridin-2-yl)methanol] | < 100 nM | ≤ 1000 nM
3 | Cc1cc(-c2cc(-c3cccc([C@H](C)N)n3)cc3c2cnn3-c2cccc(CO)n2)nn1C [Example 365, (S)-(6-(6-(6-(1-aminoethyl)pyridin-2-yl)-4-(1,5-dimethyl-1H-pyrazol-3-yl)-1H-indazol-1-yl)pyridin-2-yl)methanol] | < 100 nM | ≤ 1000 nM
4 | CCOc1cc(-c2cccc([C@@H](N)CC(C)(F)F)n2)cc2c1cnn2-c1cccc(CO)n1 [Example 438, (S)-(6-(6-(6-(1-amino-3,3-difluorobutyl)pyridin-2-yl)-4-ethoxy-1H-indazol-1-yl)pyridin-2-yl)methanol] | < 100 nM | ≤ 1000 nM
5 | Cc1cnc(-c2cc(-c3cccc([C@H](C)N)n3)cc3c2cnn3-c2cccc(CO)n2)s1 [Example 372, (S)-(6-(6-(6-(1-aminoethyl)pyridin-2-yl)-4-(5-methylthiazol-2-yl)-1H-indazol-1-yl)pyridin-2-yl)methanol] | < 100 nM | ≤ 1000 nM
6 | CCOc1cc(-c2cccc([C@@H](N)[C@@H](F)CC)n2)cc2c1cnn2-c1cccc(CO)n1 [Example 442, (6-(6-(6-((1R,2S)-1-amino-2-fluorobutyl)pyridin-2-yl)-4-ethoxy-1H-indazol-1-yl)pyridin-2-yl)methanol] | < 100 nM | ≤ 1000 nM
7 | CC[C@H](N)c1cccc(-c2cc(OC)c3cnn(-c4cncc(CO)n4)c3c2)n1 [Example 503, (S)-(6-(6-(6-(1-aminopropyl)pyridin-2-yl)-4-methoxy-1H-indazol-1-yl)pyrazin-2-yl)methanol] | < 100 nM | ≤ 1000 nM
8 | CC(O)c1cccc(-n2ncc3ccc(-c4cccc([C@H](C)N)n4)cc32)n1 (single isomer, unassigned) [Example 415] | 100 to 1000 nM | ≤ 1000 nM
9 | CCC[C@H](N)c1cccc(-c2cc(C3=CCN(C(C)=O)CC3)c3cnn(-c4cccc(CO)n4)c3c2)n1 [Example 488, (S)-1-(4-(6-(6-(1-aminobutyl)pyridin-2-yl)-1-(6-(hydroxymethyl)pyridin-2-yl)-1H-indazol-4-yl)-5,6-dihydropyridin-1(2H)-yl)ethanone] | < 100 nM | ≤ 1000 nM
10 | CCC[C@H](N)c1cccc(-c2cc(OCC(F)(F)F)c3cnn(-c4cccc(CO)n4)c3c2)n1 [Example 514, (S)-(6-(6-(6-(1-aminobutyl)pyridin-2-yl)-4-(2,2,2-trifluoroethoxy)-1H-indazol-1-yl)pyridin-2-yl)methanol] | < 100 nM | ≤ 1000 nM
11 | CCOc1cc(-c2cccc([C@@H](N)CC)n2)cc2c1cnn2-c1cncc(CO)n1 [Example 500, (S)-(6-(6-(6-(1-aminopropyl)pyridin-2-yl)-4-ethoxy-1H-indazol-1-yl)pyrazin-2-yl)methanol] | < 100 nM | ≤ 1000 nM
12 | COc1cc(-c2cccc([C@@H](N)CCC(F)(F)F)n2)cc2c1cnn2-c1cccc(CO)n1 [Example 502, (S)-(6-(6-(6-(1-amino-4,4,4-trifluorobutyl)pyridin-2-yl)-4-methoxy-1H-indazol-1-yl)pyridin-2-yl)methanol] | < 100 nM | ≤ 1000 nM
13 | C[C@H](N)c1cccc(-c2cc(-c3ncc(C(F)(F)F)s3)c3cnn(-c4cccc(CO)n4)c3c2)n1 [Example 380, (S)-(6-(6-(6-(1-aminoethyl)pyridin-2-yl)-4-(5-(trifluoromethyl)thiazol-2-yl)-1H-indazol-1-yl)pyridin-2-yl)methanol] | < 100 nM | 1000 to 10000 nM
14 | CC[C@H](N)c1cccc(-c2cc(F)c3cnn(-c4cccc(CO)n4)c3c2)n1 [Example 473, (S)-(6-(6-(6-(1-aminopropyl)pyridin-2-yl)-4-fluoro-1H-indazol-1-yl)pyridin-2-yl)methanol] | < 100 nM | ≤ 1000 nM
15 | CCC[C@H](N)c1cccc(-c2cc(N3CCOC(C)C3)c3cnn(-c4cccc(CO)n4)c3c2)n1 (stereo partly drawn) [Example 334, (6-(6-(6-((S)-1-aminobutyl)pyridin-2-yl)-4-(2-methylmorpholino)-1H-indazol-1-yl)pyridin-2-yl)methanol] | < 100 nM | ≤ 1000 nM
16 | CC(C)C[C@H](N)c1cccc(-c2ccc3cnn(-c4cccc(CO)n4)c3c2)n1 [Example 521, (S)-(6-(6-(6-(1-amino-3-methylbutyl)pyridin-2-yl)-1H-indazol-1-yl)pyridin-2-yl)methanol] | < 100 nM | ≤ 1000 nM

Row | Structure (SMILES) | IC50 (IRAK4) | EC50 (IL-6 in A549 cells)
17 | CC[C@H](N)c1cccc(-c2ccc3cnn(-c4cncc(CO)n4)c3c2)n1 [Example 398, (S)-(6-(6-(6-(1-aminopropyl)pyridin-2-yl)-1H-indazol-1-yl)pyrazin-2-yl)methanol] | < 100 nM | ≤ 1000 nM
18 | CCC[C@H](N)c1cccc(-c2ccc3cnn(-c4cccc(CF)n4)c3c2)n1 [Example 518, (S)-1-(6-(1-(6-(fluoromethyl)pyridin-2-yl)-1H-indazol-6-yl)pyridin-2-yl)butan-1-amine] | < 100 nM | ≤ 1000 nM
19 | C[C@H](N)c1cccc(-c2cc(-c3cn(C)cn3)c3cnn(-c4cccc(CO)n4)c3c2)n1 [Example 363, (S)-(6-(6-(6-(1-aminoethyl)pyridin-2-yl)-4-(1-methyl-1H-imidazol-4-yl)-1H-indazol-1-yl)pyridin-2-yl)methanol] | < 100 nM | ≤ 1000 nM
20 | CCC[C@H](N)c1cccc(-c2ccc3cnn(-c4nccc(C(F)(F)F)n4)c3c2)n1 [Example 531, (S)-1-(6-(1-(4-(trifluoromethyl)pyrimidin-2-yl)-1H-indazol-6-yl)pyridin-2-yl)butan-1-amine] | < 100 nM | ≤ 1000 nM
21 | CC(N)c1cccc(-c2ccc3cnn(-c4cccc(C(F)F)n4)c3c2)n1 (stereo in doubt) [Example 529, (S)-1-(6-(1-(6-(difluoromethyl)pyridin-2-yl)-1H-indazol-6-yl)pyridin-2-yl)ethanamine] | < 100 nM | ≤ 1000 nM
22 | CCC[C@H](N)c1cccc(-c2cc(N3CCC(O)CC3)c3cnn(-c4cccc(CO)n4)c3c2)n1 [Example 329, (S)-1-(6-(6-(1-aminobutyl)pyridin-2-yl)-1-(6-(hydroxymethyl)pyridin-2-yl)-1H-indazol-4-yl)piperidin-4-ol] | < 100 nM | ≤ 1000 nM
23 | CCC[C@H](N)c1cccc(-c2cc(NCC)c3cnn(-c4cccc(CO)n4)c3c2)n1 [Example 328, (S)-(6-(6-(6-(1-aminobutyl)pyridin-2-yl)-4-(ethylamino)-1H-indazol-1-yl)pyridin-2-yl)methanol] | < 100 nM | ≤ 1000 nM
24 | CSCC(N)c1cccc(-c2ccc3cnn(-c4cccc(CO)n4)c3c2)n1 (stereo not shown) [Example 520, (6-(6-(6-(1-amino-2-(methylthio)ethyl)pyridin-2-yl)-1H-indazol-1-yl)pyridin-2-yl)methanol] | < 100 nM | ≤ 1000 nM
25 | CC[C@H](N)c1cccc(-c2cc(-c3ccn(C)n3)c3cnn(-c4cccc(CO)n4)c3c2)n1 [Example 360, (S)-(6-(6-(6-(1-aminopropyl)pyridin-2-yl)-4-(1-methyl-1H-pyrazol-3-yl)-1H-indazol-1-yl)pyridin-2-yl)methanol] | < 100 nM | ≤ 1000 nM
26 | CS(=O)(=O)CC(N)c1cccc(-c2ccc3cnn(-c4cccc(CO)n4)c3c2)n1 (stereo not shown) [Example 532, (6-(6-(6-(1-amino-2-(methylsulfonyl)ethyl)pyridin-2-yl)-1H-indazol-1-yl)pyridin-2-yl)methanol] | < 100 nM | ≤ 1000 nM
27 | CCC[C@H](N)c1cccc(-c2cc(NCC(CCl)C(=O)O)c3cnn(-c4cccc(CO)n4)c3c2)n1 (stereo partly drawn) [Example 336, 3-((6-(6-((S)-1-aminobutyl)pyridin-2-yl)-1-(6-(hydroxymethyl)pyridin-2-yl)-1H-indazol-4-yl)amino)-2-(chloromethyl)propanoic acid] | < 100 nM | ≤ 1000 nM
28 | CCCC(N)c1cccc(-c2ccc3cnn(-c4cccc(C(F)F)n4)c3c2)n1 (stereo in doubt) [Example 519, (S)-1-(6-(1-(6-(difluoromethyl)pyridin-2-yl)-1H-indazol-6-yl)pyridin-2-yl)butan-1-amine] | < 100 nM | ≤ 1000 nM
29 | NC(c1cccc(-c2ccc3cnn(-c4cccc(CO)n4)c3c2)n1)C1COC1 (stereo not shown) [Example 446, (6-(6-(6-(amino(oxetan-3-yl)methyl)pyridin-2-yl)-1H-indazol-1-yl)pyridin-2-yl)methanol] | < 100 nM | ≤ 1000 nM
30 | CCCC[C@H](N)c1cccc(-c2ccc3cnn(-c4cccc(CO)n4)c3c2)n1 [Example 493, (S)-(6-(6-(6-(1-aminopentyl)pyridin-2-yl)-1H-indazol-1-yl)pyridin-2-yl)methanol] | < 100 nM | ≤ 1000 nM
31 | CCOc1cc(-c2cccc([C@@H](N)CCCOC)n2)cc2c1cnn2-c1cccc(CO)n1 [Example 513, (S)-(6-(6-(6-(1-amino-4-methoxybutyl)pyridin-2-yl)-4-ethoxy-1H-indazol-1-yl)pyridin-2-yl)methanol] | < 100 nM | ≤ 1000 nM
32 | CCC[C@H](N)c1cccc(-c2ccc3cnn(-c4cncc(C(F)(F)F)n4)c3c2)n1 [Example 546, (S)-1-(6-(1-(6-(trifluoromethyl)pyrazin-2-yl)-1H-indazol-6-yl)pyridin-2-yl)butan-1-amine] | < 100 nM | 1000 to 10000 nM
